Read-outs that look alike come from different tables or passages of the source.
Tests used:
[1] = biological target: T1, HDAC-1 (Homo sapiens, UniProt Q13547); assay: Deacetylase fluorescence assay (HDAC-1); assay type: biochemical
T1 construct: made in house
Protocol: Conventional methods are used to express deacetylase enzymes and purify them from lysed cells. The following example describes an exemplary procedure, however equivalent procedures are within the scope of the invention.
The cell line used is a derivative of 293 cells overexpressing a fusion of the gene encoding each deacetylase protein with a nucleotide sequence encoding the Flag marker.
Cells are grown in Optimem, 2% Fetal Calf Serum, Pen/Strep. For enzyme preparation, Lysis buffer (IPLS) is 50 mM Tris-HCl, pH 7.5, 120 mM NaCl, 0.5 mM EDTA and 0.5% Nonidet P-40, to which is added one tablet of Protease inhibitors (Roche 11836170001) per 10 ml buffer. Other buffers are IPHS, which is IPLS containing 1 M NaCl; TBS (Sigma #T5912) dilute 10× stock to 1× with dH2O; HD buffer: 10 mM Tris pH 8.0 (1M Stock) 10 mM NaCl (5M Stock), 10% glycerol, and for dialysis: 400 μM PMSF is added (for 2 L: use 8 ml 100 mM Stock). Protease inhibitors (Complete mini, Boehringer Mannheim), 1 tablet/10 mL are added to all buffers but not used in buffers for enzyme assays.
Cells are harvested without using trypsin, and most cells are obtained easily in PBS, with gentle striking or agitation of flasks if necessary. More adherent cells are scraped in PBS. Cells are grown in 500 cm^2 trays, from which about half of the media is aspirated (50 ml total), then cells are scraped in the rest of the media and transferred to a centrifuge tube. Trays are washed with 25 ml cold PBS, scraped again to collect additional cells, and centrifuged at 1500 rpm at 4° C. for 5 min. Cells are washed at least 3 times in PBS to remove growth media, pelleting cells after each wash by centrifugation at 1500 rpm for 5 minutes. After washing, PBS is removed and the resulting cell pellet frozen at −80° C. for storage prior to purification.
For purification, cells are resuspended in lysis buffer, 12 ml of IPLS for cells collected from 10 500 cm trays. Cells are lysed at 4° C. for 3 hrs with rocking, and debris is removed by centrifugation for 20 min at 17,000 rpm in 30 ml centrifuge tubes. If supernatant is not clear afterward, centrifugation of the supernatant is repeated. Protein concentration of the whole cell lysate is determined (generally in the range of about 2-5 mg/ml).
For immunoprecipitation per mg of protein, 15 μL of anti-Flag M2-Agarose Affinity beads (Sigma #A2220) is used. Beads are prepared by washing 3 times with 10× bead volume of PBS and 1 time with IPLS, with centrifugation of the washes at 1500 rpm for 5 min. Whole cell lysate is incubated with the Ab-beads overnight at 4° C. Then beads are centrifuged and washed in 5× volume of the following buffers: three times in IPLS (30 sec at 4° C., spin at 1500 RPM for 5 min); three times in IPHS; and three times in TBS buffer. After each centrifugation, the supernatant is aspirated, leaving the pellet as dry as possible but avoiding sucking up any of the beads.
To elute the enzyme, beads are resuspended in 5× bead volume of TBS with protease inhibitor (Roche 11836170001) 1 tablet/10 mL. Enzyme is eluted with 400 μg/mL Flag peptide (Sigma #F-3290) for 3 hrs at 4° C. on rotator. Then beads are centrifuged, and the supernatant is transferred to a new tube to which is added 1/10 volume of glycerol. The supernatant is transferred to a dialysis cassette (Pierce #66410) using a 3 cc syringe and 18 G needle, and is dialyze sup in 2 L HD buffer for 2 hrs at 4° C. (1 L/hour). The resulting purified deacetylase is divided into aliquots (300 μL/tube), is snap frozen in dry ice bath, and is stored at −80° C.
For assay of deacetylase an assay based on Deacetylase Fluorescent Activity Assay/Drug Discovery Kit (BioMol # AK500) is used, however any equivalent deacetylase assay is within the scope of the invention.
The Fluorescent Assay Buffer (FAB) contains: 25 mM Tris-HCl, pH 8.0, 137 mM NaCl, 2.7 mM KCl and 1 mM MgCl2. […]

[2] = system: p21 promoter (p21-luc) in H1299 cells; assay: p21 promoter luciferase assay using stably transfected p21-luc in H1299 cells; assay type: cell-based; conditions: Homo sapiens, NCI-H1299
Protocol: The cell lines used are derived from H1299 (p21-luc). The growth media used is RPMI 1640, 10% FBS, 1% Pen/Strep and the selection media added is 500 μg/mL Geneticin (Gibco). The buffer used is 5× cell culture lysis buffer (Promega #E1531), stored at −20 C and the Luciferase assay reagent (Promega #E1483) is stored at −70° C. The results of the assay are analyzed using Wallac Software.
To assay Luciferase, the cell culture medium is removed after one day of growth and the flasks are washed once with PBS. The cells are trypsinized in 20 mL of media and the trypsin is neutralized. The cells are counted (0.5-1 mL) on a Vi-Cell XR cell viability analyzer.
Cells are then diluted to a concentration of approximately 5000 cells/200 μL, and 190 μL samples are aliquoted into each well of a Costar white 96-well TC treated white bottom plate with lid (Costar #3917). Plates are then incubated overnight at 37 C.
After a further day, a sample of the compound is added to the wells for assay.
After a further day, the cells are lysed and the luciferase activity of the lysed cells is measured. Each well is washed twice with PBS and 20 μL/well of 1× cell culture lysis buffer (dilute 5× to 1× in distilled water) is added to each well. The microtiter plates are then shaken on a microtiter plate shaker for 20 minutes at room temperate at a speed setting of 5-6. After removal from the shaker, 100 μL of Luciferase Reagent is added to each well. Each microtiter plate is then read on Wallac Envision instrument.

T1 sequence (Q13547 whole entry): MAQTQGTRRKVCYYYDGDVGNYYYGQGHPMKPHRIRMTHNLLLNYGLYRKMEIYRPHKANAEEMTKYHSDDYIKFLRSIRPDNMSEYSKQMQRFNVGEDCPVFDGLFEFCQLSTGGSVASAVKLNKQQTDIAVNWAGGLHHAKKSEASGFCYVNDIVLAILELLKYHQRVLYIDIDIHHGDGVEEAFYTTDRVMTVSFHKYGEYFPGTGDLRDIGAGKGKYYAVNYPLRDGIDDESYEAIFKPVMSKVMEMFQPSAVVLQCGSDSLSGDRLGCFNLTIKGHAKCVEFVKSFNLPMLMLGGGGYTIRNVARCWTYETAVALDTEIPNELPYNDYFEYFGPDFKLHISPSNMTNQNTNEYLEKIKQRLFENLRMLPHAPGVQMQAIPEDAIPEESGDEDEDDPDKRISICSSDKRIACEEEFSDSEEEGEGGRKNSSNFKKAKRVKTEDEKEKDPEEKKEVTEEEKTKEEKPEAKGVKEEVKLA

Row | SMILES | IC50 ([1]; read-out: HDAC-1 IC50) [nM] | AC50 [2] [nM] | IC50 [1] [nM]
1 | O=C(/C=C/c1ccc2c(c1)CN(C(=O)c1cccc(C(F)(F)F)c1)C2)NO [Example 16, (E)-N-Hydroxy-3-[2-(3-trifluoromethyl-benzoyl)-2,3-dihydro-1H-isoindol-5-yl]-acrylamide] | 100 to 1000 | > 1000 | 
2 | O=C(/C=C/c1ccc2c(c1)CN(C(=O)c1cccnc1)C2)NO [Example 17, (E)-N-Hydroxy-3-[2-(pyridine-3-carbonyl)-2,3-dihydro-1H-isoindol-5-yl]-acrylamide] | 100 to 1000 | > 1000 | 
3 | O=C(/C=C/c1ccc2c(c1)CN(C(=O)c1cccs1)C2)NO [Example 18, (E)-N-Hydroxy-3-[2-(thiophene-2-carbonyl)-2,3-dihydro-1H-isoindol-5-yl]-acrylamide] | < 100 | > 1000 | 
4 | CCCCS(=O)(=O)N1Cc2ccc(/C=C/C(=O)NO)cc2C1 [Example 19, (E)-3-[2-(Butane-1-sulfonyl)-2,3-dihydro-1H-isoindol-5-yl]-N-hydroxy-acrylamide] | 100 to 1000 | > 1000 | 
5 | O=C(/C=C/c1ccc2c(c1)CN(S(=O)(=O)Cc1ccccc1)C2)NO [Example 20, (E)-N-Hydroxy-3-(2-phenylmethanesulfonyl-2,3-dihydro-1H-isoindol-5-yl)-acrylamide] | 100 to 1000 | > 1000 | 
6 | O=C(/C=C/c1ccc2c(c1)CN(CCc1c[nH]c3ccccc13)C2)NO [Example 27, (E)-N-Hydroxy-3-{2-[2-(1H-indol-3-yl)-ethyl]-2,3-dihydro-1H-isoindol-5-yl}-acrylamide] |  | > 1000 | < 100
7 | Cc1[nH]c2ccccc2c1CCN1Cc2ccc(/C=C/C(=O)NO)cc2C1 [Example 29, (E)-N-Hydroxy-3-{2-[2-(2-methyl-1H-indol-3-yl)-ethyl]-2,3-dihydro-1H-isoindol-5-yl}-acrylamide] |  | 100 to 1000 | < 100
8 | O=C(/C=C/c1ccc2c(c1)CN(CCc1c[nH]c3ccccc13)CC2)NO [Example 36, (E)-N-Hydroxy-3-{2-[2-(1H-indol-3-yl)-ethyl]-1,2,3,4-tetrahydro-isoquinolin-7-yl}-acrylamide] | 100 to 1000 | > 1000 | 
9 | Cc1[nH]c2ccccc2c1CCN1CCc2ccc(CCC(=O)NO)cc2C1 [Example 37, N-Hydroxy-3-{2-[2-(2-methyl-1H-indol-3-yl)-ethyl]-1,2,3,4-tetrahydro-isoquinolin-7-yl}-propionamide] | > 1000 | > 1000 | 
10 | Cc1[nH]c2ccccc2c1CCN1CCc2ccc(/C=C/C(=O)NO)cc2C1 [Example 39, (E)-N-Hydroxy-3-{2-[2-(2-methyl-1H-indol-3-yl)-ethyl]-1,2,3,4-tetrahydro-isoquinolin-7-yl}-acrylamide] | < 100 | 100 to 1000 | 

Now from value to compound, other results behind:

Row | IC50 ([1]; read-out: HDAC-1 IC50) [nM] | SMILES | AC50 [2] [nM] | IC50 [1] [nM]
11 | 100 to 1000 | O=C(/C=C/c1ccc2c(c1)CN(C(=O)C1CCCCC1)C2)NO [Example 21, (E)-3-(2-Cyclohexanecarbonyl-2,3-dihydro-1H-isoindol-5-yl)-N-hydroxy-acrylamide] | > 1000 | 
12 | 100 to 1000 | O=C(/C=C/c1ccc2c(c1)CN(C(=O)C1CCCC1)C2)NO [Example 22, (E)-3-(2-Cyclopentanecarbonyl-2,3-dihydro-1H-isoindol-5-yl)-N-hydroxy-acrylamide] | > 1000 | 
13 | 100 to 1000 | O=C(/C=C/c1ccc2c(c1)CN(C(=O)C1CC1)C2)NO [Example 23, (E)-3-(2-Cyclopropanecarbonyl-2,3-dihydro-1H-isoindol-5-yl)-N-hydroxy-acrylamide] | > 1000 | 
14 | 100 to 1000 | O=C(/C=C/c1ccc2c(c1)CN(S(=O)(=O)C1CC1)C2)NO [Example 24, (E)-3-(2-Cyclopropanesulfonyl-2,3-dihydro-1H-isoindol-5-yl)-N-hydroxy-acrylamide] | > 1000 | 
15 | < 100 | Cc1[nH]c2ccccc2c1CC(=O)N1Cc2ccc(/C=C/C(=O)NO)cc2C1 [Example 25, (E)-N-Hydroxy-3-{2-[2-(2-methyl-1H-indol-3-yl)-acetyl]-2,3-dihydro-1H-isoindol-5-yl}-acrylamide] | > 1000 | 
16 | 100 to 1000 | O=C(/C=C/c1ccc2c(c1)CN(C(=O)Cc1ccccc1)C2)NO [Example 26, (E)-N-Hydroxy-3-(2-phenylacetyl-2,3-dihydro-1H-isoindol-5-yl)-acrylamide] | > 1000 | 
17 | < 100 | O=C(/C=C/c1ccc2c(c1)CN(CCc1cnn3ccccc13)C2)NO [Example 28, (E)-N-Hydroxy-3-[2-(2-pyrazolo[1,5-a]pyridin-3-yl-ethyl)-2,3-dihydro-1H-isoindol-5-yl]-acrylamide] | > 1000 | 
18 | 100 to 1000 | O=C(CCc1ccc2c(c1)CN(CCC1CCCCC1)CC2)NO [Example 31] | > 1000 | 
19 | > 1000 | Cc1nn(C)c(C)c1CN1CCc2cc(/C=C/C(=O)NO)ccc2C1 [Example 32, (E)-N-Hydroxy-3-[2-(1,3,5-trimethyl-1H-pyrazol-4-ylmethyl)-1,2,3,4-tetrahydro-isoquinolin-6-yl]-acrylamide] | > 1000 | 
20 | < 100 | Cc1nn2ccccc2c1CCN1CCCc2cc(/C=C/C(=O)NO)ccc2C1 [Example 33, (E)-N-Hydroxy-3-{2-[2-(2-methyl-pyrazolo[1,5-a]pyridin-3-yl)-ethyl]-2,3,4,5-tetrahydro-1H-benzo[c]azepin-7-yl}-acrylamide] | > 1000 | 
21 | 100 to 1000 | Cc1noc(-c2ccccc2)c1CCN1Cc2ccc(/C=C/C(=O)NO)cc2C1 [Example 34, (E)-N-Hydroxy-3-{2-[2-(3-methyl-5-phenyl-isoxazol-4-yl)-ethyl]-2,3-dihydro-1H-isoindol-5-yl}-acrylamide] | > 1000 | 
22 | 100 to 1000 | O=C(/C=C/c1ccc2c(c1)CN(CCC1CCCCC1)C2)NO [Example 35, (E)-3-[2-(2-Cyclohexyl-ethyl)-2,3-dihydro-1H-isoindol-5-yl]-N-hydroxy-acrylamide] | > 1000 | 
23 | < 100 | Cc1noc(-c2ccccc2)c1CCN1CCc2ccc(/C=C/C(=O)NO)cc2C1 [Example 38, (E)-N-Hydroxy-3-{2-[2-(3-methyl-5-phenyl-isoxazol-4-yl)-ethyl]-1,2,3,4-tetrahydro-isoquinolin-7-yl}-acrylamide] | > 1000 | 
